Results reported in patent US6432430B1, “Exfoliating scrub with niacinamide” (priority 2000, dated 2002).

Test system: acne
Assay: topical use of the exfoliating scrub on acne, washed off immediately after use
Assay type: in vivo
Conditions: niacinamide in exfoliating cream, cream immediately removed
Excerpt: The cream is applied to the affected area, typically the face, and is used in the same manner as other exfoliating scrubs by massaging the cream into the skin. The abrasive agent acts to remove dead skin cells and the niacinamide is brought into direct contact with the affected areas. The cream is then removed by washing the area with water, and if desired, a mild soap. […] The frequency with which the exfoliating scrub is applied depends upon several factors, including the severity of the skin condition, and the user's skin type and sensitivity. Patients having oily skin may use the scrub as often as once to twice per day. Patients having dry skin or sensitive skin generally will use the scrub less often. The precise frequency is determined on a case by case basis influenced by the actual results achieved. As described above, the cream is topically applied to the area to be treated and is gently massaged into the skin. The cream is then immediately removed, preferably with warm water. The skin may beneficially be thoroughly cleansed prior to application of the cream of the present invention. In all cases the scrub is washed from the skin immediately after use.

For `NC(=O)c1cccnc1` [niacinamide], the “therapeutic effect on acne” value was “beneficial therapeutic effect on acne”.
